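Growth conditions: 96-well plates. Treatment: test compound, 48 hours, 5 concentrations. Analysis: linear interpolation between bracketing concentrations; unreached endpoints set to highest concentration. GI50 is the concentration that inhibits growth by half. TGI is the concentration that stops growth completely.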
Columns and labels:
Experiment in all cases: NCI tumour cell line growth inhibition, 48 h
[1] = test system: 786-0 renal
[2] = test system: A549 NSCLC
[3] = test system: ACHN renal
[4] = test system: BT-549 breast
[5] = test system: CAKI-1 renal
[6] = test system: COLO 205 colon
[7] = test system: DU-145 prostate
[8] = test system: EKVX NSCLC
[9] = test system: HCC-2998 colon
[10] = test system: HCT-116 colon
[11] = test system: HCT-15 colon
[12] = test system: HL-60(TB) leukemia
[13] = test system: HOP-62 NSCLC
[14] = test system: HOP-92 NSCLC
[15] = test system: HS 578T breast
[16] = test system: IGROV1 ovarian
[17] = test system: K-562 leukemia
[18] = test system: KM12 colon
[19] = test system: LOX IMVI melanoma
[20] = test system: M14 melanoma
[21] = test system: MCF7 breast
[22] = test system: MDA-MB-231 breast
[23] = test system: MDA-MB-435
[24] = test system: NCI-H23 lung
[25] = test system: NCI-H460 lung
[26] = test system: NCI-H522 lung
[27] = test system: NCI/ADR-RES ovarian
[28] = test system: OVCAR-3 ovarian
[29] = test system: OVCAR-4 ovarian
[30] = test system: OVCAR-5 ovarian
[31] = test system: OVCAR-8 ovarian
[32] = test system: PC-3 prostate
[33] = test system: RPMI-8226 leukemia
[34] = test system: RXF 393 renal
[35] = test system: SF-268 CNS
[36] = test system: SF-295 CNS
[37] = test system: SF-539 CNS
[38] = test system: SK-MEL-2 melanoma
[39] = test system: SK-MEL-28 melanoma
[40] = test system: SK-MEL-5 melanoma
[41] = test system: SK-OV-3 ovarian
[42] = test system: SN12C renal
[43] = test system: SNB-19 CNS
[44] = test system: SR leukemia
[45] = test system: SW-620 colon
[46] = test system: T-47D breast
[47] = test system: TK-10 renal
[48] = test system: U251 CNS
[49] = test system: UACC-257 melanoma
[50] = test system: UACC-62 melanoma
[51] = test system: UO-31 renal
[52] = test system: A498 renal
[53] = test system: CCRF-CEM leukemia
[54] = test system: HT29 colon
[55] = test system: MALME-3M melanoma
[56] = test system: MOLT-4 leukemia
[57] = test system: NCI-H226 lung
[58] = test system: SNB-75 CNS

Cn1c(-c2c(N)n(Cc3ccc(Cl)cc3)c3nc(C#N)c(C#N)nc23)nc2ccccc21
GI50 [1]: 7.69 µM | TGI [1]: 17.4 µM | GI50 [2]: 5.02 µM | TGI [2]: 19.8 µM | GI50 [3]: 1.5 µM | TGI [3]: 6.38 µM | GI50 [4]: 6.44 µM | TGI [4]: 15.6 µM | GI50 [5]: 7.15 µM | TGI [5]: 18.7 µM | GI50 [6]: 3.13 µM | TGI [6]: 16.4 µM | GI50 [7]: 5.94 µM | TGI [7]: 17.4 µM | GI50 [8]: 7.04 µM | TGI [8]: 46.1 µM | GI50 [9]: 1.08 µM | TGI [9]: 3.57 µM | GI50 [10]: 8.52 µM | TGI [10]: > 50 µM | GI50 [11]: 4.55 µM | TGI [11]: > 50 µM | GI50 [12]: 16.9 µM | TGI [12]: > 50 µM | GI50 [13]: 11.7 µM | TGI [13]: > 50 µM | GI50 [14]: 2.35 µM | TGI [14]: 10.1 µM | GI50 [15]: 4 µM | TGI [15]: 24.5 µM | GI50 [16]: 1.54 µM | TGI [16]: 7.71 µM | GI50 [17]: 17.3 µM | TGI [17]: > 50 µM | GI50 [18]: 2.76 µM | TGI [18]: 32.2 µM | GI50 [19]: 1.14 µM | TGI [19]: 5.68 µM | GI50 [20]: 10.6 µM | TGI [20]: 42.6 µM | GI50 [21]: 3.94 µM | TGI [21]: > 50 µM | GI50 [22]: 1.69 µM | TGI [22]: 9.41 µM | GI50 [23]: 7.63 µM | TGI [23]: > 50 µM | GI50 [24]: 1.18 µM | TGI [24]: 2.48 µM | GI50 [25]: 2.7 µM | TGI [25]: 25.7 µM | GI50 [26]: 2.83 µM | TGI [26]: 15.6 µM | GI50 [27]: 2.36 µM | TGI [27]: 10.8 µM | GI50 [28]: 1.37 µM | TGI [28]: 6.2 µM | GI50 [29]: 3.89 µM | TGI [29]: 18.6 µM | GI50 [30]: 6.74 µM | TGI [30]: 16 µM | GI50 [31]: 5.37 µM | TGI [31]: 23.4 µM | GI50 [32]: 4.62 µM | TGI [32]: > 50 µM | GI50 [33]: 1.73 µM | TGI [33]: > 50 µM | GI50 [34]: 0.567 µM | TGI [34]: 4.67 µM | GI50 [35]: 16.3 µM | TGI [35]: > 50 µM | GI50 [36]: 6.28 µM | TGI [36]: 40.5 µM | GI50 [37]: 6.64 µM | TGI [37]: 14.5 µM | GI50 [38]: > 50 µM | TGI [38]: > 50 µM | GI50 [39]: 2.86 µM | TGI [39]: 13.9 µM | GI50 [40]: 5.24 µM | TGI [40]: 16.5 µM | GI50 [41]: 1.89 µM | TGI [41]: 5.67 µM | GI50 [42]: 2.57 µM | TGI [42]: 10.3 µM | GI50 [43]: 12.3 µM | TGI [43]: 46.5 µM | GI50 [44]: 8.26 µM | TGI [44]: > 50 µM | GI50 [45]: 5.26 µM | TGI [45]: > 50 µM | GI50 [46]: 1.83 µM | TGI [46]: 14.5 µM | GI50 [47]: 6.9 µM | TGI [47]: 15.8 µM | GI50 [48]: 3.76 µM | TGI [48]: 13 µM | GI50 [49]: 13.5 µM | TGI [49]: > 50 µM | GI50 [50]: 2.26 µM | TGI [50]: 9.71 µM | GI50 [51]: 5.35 µM | TGI [51]: 13.2 µM

CCOC(=O)c1c(N2CCOCC2)[nH]c(=O)c(C(c2ccc(N(C)C)cc2)c2c(O)c(C(=O)OCC)c(N3CCOCC3)[nH]c2=O)c1O
TGI [1]: > 100 µM | TGI [52]: > 100 µM | TGI [2]: > 100 µM | TGI [3]: > 100 µM | TGI [4]: > 100 µM | TGI [5]: > 100 µM | TGI [53]: > 100 µM | TGI [6]: > 100 µM | TGI [7]: > 100 µM | TGI [8]: > 100 µM | TGI [9]: > 100 µM | TGI [10]: > 100 µM | TGI [11]: > 100 µM | TGI [13]: > 100 µM | TGI [14]: > 100 µM | TGI [15]: > 100 µM | TGI [54]: > 100 µM | TGI [17]: > 100 µM | TGI [18]: > 100 µM | TGI [19]: > 100 µM | TGI [20]: > 100 µM | TGI [55]: > 100 µM | TGI [21]: > 100 µM | TGI [22]: > 100 µM | TGI [23]: > 100 µM | TGI [56]: > 100 µM | TGI [57]: > 100 µM | TGI [24]: > 100 µM | TGI [25]: > 100 µM | TGI [26]: > 100 µM | TGI [27]: > 100 µM | TGI [28]: > 100 µM | TGI [29]: > 100 µM | TGI [30]: > 100 µM | TGI [31]: > 100 µM | TGI [32]: > 100 µM | TGI [33]: > 100 µM | TGI [34]: > 100 µM | TGI [35]: > 100 µM | TGI [36]: > 100 µM | TGI [37]: > 100 µM | TGI [38]: > 100 µM | TGI [39]: > 100 µM | TGI [40]: > 100 µM | TGI [41]: > 100 µM | TGI [42]: > 100 µM | TGI [43]: > 100 µM | TGI [58]: > 100 µM | TGI [44]: > 100 µM | TGI [45]: > 100 µM | TGI [46]: > 100 µM | TGI [47]: > 100 µM | TGI [48]: > 100 µM | TGI [49]: > 100 µM | TGI [50]: > 100 µM | TGI [51]: > 100 µM

From PubChem BioAssay (NCI)
